The supplement of paper PMC10307832

What was measured:
Assay in all cases: relative viability (nuclei count vs DMSO), 5 days (fraction); higher = more cells survive
KN-93 + Alpelisib = compound: CN(C/C=C/C1=CC=C(C=C1)Cl)CC2=CC=CC=C2N(CCO)S(=O)(=O)C3=CC=C(C=C3)OC [KN-93] + Cc1nc(NC(=O)N2CCC[C@H]2C(N)=O)sc1-c1ccnc(C(C)(C)C(F)(F)F)c1 [Alpelisib] (partner 2 µM)
In short: (§1)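 Dosing by pin tool came one day after lung cancer cell lines were seeded in 1536-well plates, using either one drug or a fixed anchor-drug dose plus five library-drug doses (not always all listed) in √10 steps. After 5 days, nuclei were counted on 4× images. Relative viability is treated-well nuclei count divided by vehicle-well nuclei count, and values are medians of duplicate plates.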

KN-93 + Decitabine = compound: CN(C/C=C/C1=CC=C(C=C1)Cl)CC2=CC=CC=C2N(CCO)S(=O)(=O)C3=CC=C(C=C3)OC [KN-93] + Nc1ncn([C@H]2C[C@H](O)[C@@H](CO)O2)c(=O)n1 [Decitabine] (partner 2 µM)
In short: as §1

KN-93 + Luminespib = compound: CN(C/C=C/C1=CC=C(C=C1)Cl)CC2=CC=CC=C2N(CCO)S(=O)(=O)C3=CC=C(C=C3)OC [KN-93] + CCNC(=O)c1noc(-c2cc(C(C)C)c(O)cc2O)c1-c1ccc(CN2CCOCC2)cc1 [Luminespib] (partner 0.01 µM)
In short: as §1

KN-93 + Foretinib = compound: CN(C/C=C/C1=CC=C(C=C1)Cl)CC2=CC=CC=C2N(CCO)S(=O)(=O)C3=CC=C(C=C3)OC [KN-93] + COc1cc2c(Oc3ccc(NC(=O)C4(C(=O)Nc5ccc(F)cc5)CC4)cc3F)ccnc2cc1OCCCN1CCOCC1 [Foretinib] (partner 0.25 µM)
In short: as §1

KN-93 + OSI-027 = compound: CN(C/C=C/C1=CC=C(C=C1)Cl)CC2=CC=CC=C2N(CCO)S(=O)(=O)C3=CC=C(C=C3)OC [KN-93] + COc1cccc2cc(-c3nc([C@H]4CC[C@H](C(=O)O)CC4)n4ncnc(N)c34)[nH]c12 [OSI-027] (partner 0.5 µM)
In short: as §1

Cell Line | relative viability (KN-93 + Alpelisib; first compound 0.08 µM) | relative viability (KN-93 + Alpelisib; first compound 0.253 µM) | relative viability (KN-93 + Alpelisib; first compound 2.53 µM) | relative viability (KN-93 + Alpelisib; first compound 8 µM) | relative viability (KN-93 + Decitabine; first compound 0.08 µM) | relative viability (KN-93 + Decitabine; first compound 0.253 µM) | relative viability (KN-93 + Decitabine; first compound 2.53 µM) | relative viability (KN-93 + Decitabine; first compound 8 µM) | relative viability (KN-93 + Luminespib; first compound 0.08 µM) | relative viability (KN-93 + Luminespib; first compound 0.253 µM) | relative viability (KN-93 + Luminespib; first compound 2.53 µM) | relative viability (KN-93 + Luminespib; first compound 8 µM) | relative viability (KN-93 + Foretinib; first compound 0.08 µM) | relative viability (KN-93 + Foretinib; first compound 0.253 µM) | relative viability (KN-93 + Foretinib; first compound 2.53 µM) | relative viability (KN-93 + Foretinib; first compound 8 µM) | relative viability (KN-93 + OSI-027; first compound 0.08 µM) | relative viability (KN-93 + OSI-027; first compound 0.253 µM) | relative viability (KN-93 + OSI-027; first compound 2.53 µM) | relative viability (KN-93 + OSI-027; first compound 8 µM)
NCI-H1975 | 0.607 | 0.717 | 0.556 | 0.284 | 0.389 | 0.361 | 0.412 | 0.272 | 0.187 | 0.241 | 0.164 | 0.135 | 0.848 | 1.11 | 0.972 | 0.475 | 0.674 | 0.731 | 0.677 | 0.417
NCI-H441 | – | 1.18 | 0.772 | 0.341 | – | 0.203 | 0.261 | 0.197 | 0.295 | 0.417 | 0.36 | 0.287 | 1.08 | 1.23 | 1.2 | 0.73 | 0.603 | 0.672 | 0.623 | 0.479
PC-14 | 0.753 | 1.01 | 1.14 | 0.839 | 0.205 | 0.2 | 0.244 | 0.194 | 0.151 | 0.154 | 0.13 | 0.138 | 0.797 | 0.988 | 1.12 | 1.01 | 0.522 | 0.892 | 0.806 | 0.519
NCI-H520 | – | 1.38 | 1.05 | 0.763 | 0.596 | 0.599 | 0.538 | 0.458 | 0.246 | 0.212 | 0.281 | 0.224 | 0.885 | 0.952 | 0.768 | 0.711 | 0.287 | 0.289 | 0.279 | 0.205
NCI-H2347 | 1 | 1.09 | 1.07 | 0.764 | 0.57 | 0.617 | 0.643 | 0.539 | 0.618 | 0.728 | 0.458 | 0.511 | 1.12 | 0.656 | 1.25 | 0.593 | 0.379 | 0.318 | 0.371 | 0.339
PC-3 [JPC-3] | 0.999 | 1.04 | 1.01 | 0.94 | 0.786 | 0.781 | 0.919 | 0.739 | 0.572 | 0.838 | 0.632 | 0.577 | 0.98 | 1.14 | 1 | 0.784 | 0.695 | 0.749 | 0.771 | 0.55
LOU-NH91 | 0.716 | 0.647 | 0.756 | 0.64 | 0.833 | 0.769 | 0.795 | 0.786 | 0.399 | 0.353 | 0.331 | 0.321 | 0.963 | 0.886 | 1.01 | 0.885 | 0.663 | 0.565 | 0.827 | 0.65
BEN | – | 1.37 | 1.06 | 0.806 | 0.74 | 0.758 | 0.926 | 0.537 | 0.322 | 0.331 | 0.619 | 0.214 | 0.917 | 0.599 | 0.714 | 0.455 | 0.323 | 0.308 | 0.304 | 0.304
NCI-H2405 | 0.831 | 0.732 | 0.766 | 0.526 | 0.741 | 0.736 | 0.77 | 0.593 | 0.752 | 0.76 | 0.778 | 0.446 | 1.05 | 0.995 | 1.01 | 0.75 | 0.62 | 0.584 | 0.697 | 0.606
NCI-H2009 | 1.2 | 1.3 | 1.29 | 0.887 | 0.421 | 0.393 | 0.399 | 0.317 | 1.05 | 1.11 | 1.08 | 0.746 | 1.2 | 1.37 | 1.29 | 0.914 | 0.608 | 0.629 | 0.535 | 0.248
